From ChEMBL document CHEMBL4334517, “Flavipesines A and B and Asperchalasines E-H: Cytochalasans and Merocytochalasans from Aspergillus flavipes” (J Nat Prod, 2019) come the findings set out here.

For the assay, the target named is Isocitrate dehydrogenase [NADP] cytoplasmic (Homo sapiens, UniProt O75874, R132H). Nature of the assay: Inhibition of IDH1 R132H mutant (unknown origin) assessed as reduction in NADPH consumption using alpha-KG as substrate incubated for 5 mins followed by substrate addition and measured every 1 min.
Chain of Isocitrate dehydrogenase [NADP] cytoplasmic (O75874 2-414 R132H limits assumed): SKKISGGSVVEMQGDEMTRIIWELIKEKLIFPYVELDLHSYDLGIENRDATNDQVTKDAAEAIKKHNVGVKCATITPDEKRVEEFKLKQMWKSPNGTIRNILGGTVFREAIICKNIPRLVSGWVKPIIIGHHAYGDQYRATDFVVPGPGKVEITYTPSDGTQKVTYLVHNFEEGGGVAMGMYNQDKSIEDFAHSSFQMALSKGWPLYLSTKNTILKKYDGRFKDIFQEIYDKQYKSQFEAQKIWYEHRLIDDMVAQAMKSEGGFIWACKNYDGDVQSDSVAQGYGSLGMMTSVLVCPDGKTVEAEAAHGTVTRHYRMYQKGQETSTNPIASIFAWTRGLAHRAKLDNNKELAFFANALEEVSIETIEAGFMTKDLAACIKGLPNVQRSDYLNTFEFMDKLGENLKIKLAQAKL
By IC50 is commonly meant the concentration needed to halve the response being measured. As for `COc1c(O)c(C)c2c(c1O)[C@H]1O[C@@H]2[C@H]2C(=O)[C@H](O)CC/C(C)=C/[C@H]3C=C(C)[C@@H](C)[C@H]4[C@H](CC(C)C)NC(=O)[C@]43C(=O)[C@@H]21`, the IC50 is 11.7 µM.
In the case of `C=C1CC[C@@H](O)[C@]23CC[C@](O)(O2)[C@@]24C(=O)N[C@@H](CC(C)C)[C@@H]2[C@H](C)C(C)=C[C@@H]4[C@@H]13` it was > 50 µM; in that of `Cc1ccccc1C(C(=O)NC1CCCCC1)N(C(=O)Cn1ccnc1C)c1cccc(F)c1` (stereo not given), 0.2 µM; in that of `COc1c(O)c(C)c2c(c1O)[C@@H]1O[C@H]2[C@H]2C(=O)[C@H](O)CC/C(C)=C/[C@H]3C=C(C)[C@@H](C)[C@H]4[C@H](CC(C)C)NC(=O)[C@]43C(=O)[C@@H]21`, 17.3 µM.
In the case of `CC1=C[C@@H]2/C=C(\C)CC[C@@H](O)C(=O)[C@H]3[C@H](C(=O)[C@]24C(=O)N[C@@H](CC(C)C)[C@@H]4[C@@H]1C)[C@@H]1O[C@H]3c2c(O)c(O)c(O)c(C)c21` it was > 50 µM; in that of `CC(C)C[C@@H]1NC(=O)[C@]23[C@H]1[C@H](C)C(CO)=C[C@@H]2[C@@H]1[C@@]2(CCC[C@@]1(C)O)CC[C@]3(O)O2`, > 50 µM.
For the compound `COc1c(O)c(C)c2c(c1O)[C@H]1O[C@@H]2[C@H]2C(=O)[C@@]34C(=O)N[C@@H](CC(C)C)[C@@H]3[C@H](C)C(C)=C[C@@H]4/C=C(\C)CC[C@@H](O)C(=O)[C@@H]21`, the IC50 was 13.3 µM.
To `COc1c(O)c(C)c2c(c1O)[C@@H]1O[C@H]2[C@H]2C(=O)[C@@]34C(=O)N[C@@H](CC(C)C)[C@@H]3[C@H](C)C(C)=C[C@@H]4/C=C(\C)CC[C@@H](O)C(=O)[C@@H]21` belongs 43.6 µM; to `CC1=C[C@@H]2/C=C(\C)CC[C@@H](O)C(=O)[C@H]3[C@H](C(=O)[C@]24C(=O)N[C@@H](CC(C)C)[C@@H]4[C@@H]1C)[C@@H]1O[C@H]3c2c(C)c(O)c(O)c(O)c21`, > 50 µM; to `CC1=C[C@@H]2/C=C(\C)CC[C@@H](O)C(=O)[C@H]3[C@H](C(=O)[C@]24C(=O)N[C@@H](CC(C)C)[C@@H]4[C@@H]1C)[C@H]1O[C@@H]3c2c(O)c(O)c(O)c(C)c21`, > 50 µM.
